Experimental data: publication PMC9620869 (Cancer Research, 2022)

Tests used:
hiPSC-CMs = experiment: hiPSC-CM contractility; assay type: cell-based; settings: Homo sapiens, 96 h, read-out: hiPSC-CM contractility IC50
[1] = oral dose escalation, maximal dose 60 mg/kg, 30 days
serum cardiac Troponin-I = settings: 30 mg/kg oral daily, end of treatment
in vivo = settings: male, C57Bl/6, mouse, plasma, po, 10 mg/kg
HMVEC-Cs = experiment: Vasculogenesis assay; settings: Homo sapiens, 6 h

Q: What does the source list for `Cc1ccc(C(=O)Nc2ccc(CN3CCN(C)CC3)c(C(F)(F)F)c2)cc1C#Cc1cnc2cccnn12` [Ponatinib]?
A: IC50 (hiPSC-CMs): > 1500 nM; dose causing lethality [1]: 50 mg/kg; serum cardiac Troponin-I levels compared with vehicle alone (serum cardiac Troponin-I): significantly elevated levels; Cmax (in vivo): 200 ng/mL; Tmax (in vivo): 2 h; IC50 (HMVEC-Cs; read-out: Vascular profile IC50): ~200 nM; EC50 (HMVEC-Cs; read-out: Vasculotoxicity (EC50, μmol/L) mean ± SEM): 0.2 ± 0.04 µmol/L
